Reference: patent publication US10537555B2, “Complex of angiotensin receptor antagonist and neutral endopeptidase inhibitor” (CHENGDU EASTON BIOPHARMACEUTICALS CO., LTD., priority 2015, dated 2020)

Key:
Assay type in all cases: physicochemical
[1] = Hygroscopy test (25±1° C., RH 80%±2%, 24 hours); details: for Appearance at Hour Twenty-Four / Weight Increase: 24 hours
From the text: The results are in Table XII.

[2] = Chemical stability test (HPLC purity under strong light, high temperature, high humidity); set-up: Purity, Valsartan: unit not given here
From the text: On Day 5 and Day 10, respectively, test samples were taken to test their purity.

[3] = LCZ696 under high humidity conditions for ten days
From the text: LCZ696 is highly hygroscopic. […] It is well known that hygroscopicity causes difficulties in granulations, disintegration, dissolution of the solid form during the formulation process, affecting the stability and efficacy of the drug product. Hygroscopic compounds also require more expensive and complex excipients, manufacturing processes, and storage facilities.

Structure (SMILES): CCCCC(=O)N(Cc1ccc(-c2ccccc2-c2nn[n-]n2)cc1)C(C(=O)[O-])C(C)C.CCCCC(=O)N(Cc1ccc(-c2ccccc2-c2nn[n-]n2)cc1)C(C(=O)[O-])C(C)C.CCOC(=O)C(C)CC(Cc1ccc(-c2ccccc2)cc1)NC(=O)CCC(=O)[O-].CCOC(=O)C(C)CC(Cc1ccc(-c2ccccc2)cc1)NC(=O)CCC(=O)[O-].O.O.O.O.O.[Na+].[Na+].[Na+].[Na+].[Na+].[Na+] (stereo not shown) [Comparative Example]
- Appearance at Hour Twenty-Four [1]: Almost a liquid
- Weight Increase [1]: 22.34%
- Appearance at Hour Twenty-Four ([1]; listed as comparative example): almost became a liquid
- Weight Increase ([1]; listed as comparative example): more than 15%
- Appearance at Hour Zero ([1]; hour zero): Off white powder
- Change of HPLC purity in stability test ([2]; 10 days at 60° C., 25° C. RH90%±5%, or 4500 lux±500 lux): only slight decreases in purities
- Purity, Valsartan ([2]; Humidity 25° C. RH90%, 5 days): 37.05
- Purity, Valsartan ([2]; Humidity 25° C. RH90%, 10 days): 37.01
- Purity, Valsartan ([2]; Light 4500Lux, 5 days): 37.04
- Purity, Valsartan ([2]; Light 4500Lux, 10 days): 36.99
- Purity, Valsartan ([2]; Temperature 60° C., 5 days): 37.03
- Purity, Valsartan ([2]; Temperature 60° C., 10 days): 36.98
- Hygroscopicity, physical form after exposure [3]: absorbs water and turns into a liquid form
